How the values were obtained:
[1] = system: recombinant yeast W801M strain; test: Simultaneous (glucose/xylose) fermentation test in medium supplemented with amino acid, primary screening; format: cell-based, Saccharomyces cerevisiae; settings: hour 8 after start, amino acid amount per Table 3; for ΔXylose 0-8 h (decreased amount of xylose): YNGXAc+U medium (10 g/l xylose, 10 g/l glucose), 30° C., initial OD600=10, n=2; for Control ratio % (ΔXylose 0-8 h relative to no-addition control): YNGXAc+U medium, n=2
Protocol: (§1) The W801M strain prepared as described above was cultured in 5 ml of an YNG+U (6.7 g/l Yeast Nitrogen Base without amino acids, 20 g/l glucose, 20 mg/l uracil) liquid medium prepared in a test tube at 30° C. and 80 rpm for 24 hours, thereby preparing a pre-pre-culture solution. Next, the pre-pre-culture solution (5 ml) was added to new YNX+U liquid medium (250 ml) prepared in a baffled Erlenmeyer flask, followed by pre-culture at 30° C. and 100 rpm. After 48 hours of culture, the culture solution was subjected to 5 minutes of centrifugation at 1000×g at room temperature, thereby removing the supernatant.
(§2) To prevent the introduction of the substrate into the pre-culture solution, the thus collected microbial pellet was suspended in sterile water and then subjected to centrifugation at 1000×g for 5 minutes, thereby collecting microorganisms. Washing was performed twice. After washing, microorganisms were suspended in sterile water, so that a microbial solution was prepared. A sodium acetate buffer was added to the fermentation medium so as to suppress a pH decrease in the medium associated with fermentation. The microbial solution was added to an YNGXAc+U medium (6.7 g/l Yeast Nitrogen Base without amino acids, 10 g/l D-Xylose, 10 g/l Glucose, 25 mM sodium acetate, 20 mg/l uracil, pH 5.0) so that the initial microbial concentration was OD600=10. One type of amino acid was added to the YNGXAc+U medium to result in a predetermined concentration, and then the medium was used. Amino acid was dissolved in water to a concentration 10 times greater than the final concentration. Then the solution was adjusted to pH 5.0, diluted, and then used. The fermentation test was conducted as follows. Five (5) ml of the culture solution was added to a 15-ml plastic tube with a screw cap, the tube was sealed with the cap, and then the tube was shaken at 30° C. (100 rpm). Sampling from the culture solution was performed over time and thus substrates (xylose and glucose) and the product (ethanol) were analyzed via liquid chromatography. Liquid chromatography was performed using a Shim-pack SPR-Pb column (Shimadzu Corporation) at 80° C. An RID-10A refractive index detector (Shimadzu Corporation) was used. Water was used for a mobile phase and sent at a flow rate of 0.8 ml/min.
A fermentation test was conducted (n=2) using as a control an YNGXAc+U medium to which nothing had been added, an YNGXAc+U medium supplemented with casamino acid (CAA, 20 g/L) (that is, an amino acid mixture obtained via hydrolysis of casein) and YNGXAc+U medium supplemented with 18 types of amino acids considered to be contained in casamino acid (20 g/L) or 2 types of amino acid (glutamine and asparagine) (5 g/L) considered not to be contained in casamino acid. The results of the measurement of the decreased amounts of xylose at hour 8 after the start of the fermentation test are shown in Table 3.

[2] = system: recombinant yeast W801M strain; test: Simultaneous (glucose/xylose) fermentation test in medium supplemented with amino acid, secondary test; format: cell-based, Saccharomyces cerevisiae; settings: n=4
Protocol: as §1, §2
In addition, 8 hours later, glucose had been completely consumed and thus was not detected in any samples.
Also, 2 hours later, glucose remained in all samples.
Also, 22 hours later, both glucose and xylose had been completely consumed and thus was not detected. It was understood from the results that the microbial concentrations had increased from the initial microbial concentration of OD600=10 to around OD600=15 at hour 22. However, the microbial concentrations at hour 22 when the amino acids were added were equivalent to or lower than that of the control.

SMILES | ΔXylose 0-8 h (decreased amount of xylose) [1] | Control ratio % (ΔXylose 0-8 h relative to no-addition control) [1] | xylose consumption rate compared with the control (decreased amount of xylose at hour 8, FIG. 7) ([2]; amino acid added at 0.3 g/L) | xylose consumption rate compared with the control (decreased amount of xylose at hour 8, FIG. 7) ([2]; amino acid added at 1 g/L)
C[C@H](N)C(=O)O [Ala, alanine] | 2.95 g/L | 111% | – | –
N=C(N)NCCC[C@H](N)C(=O)O [Arg, arginine] | 2.91 g/L | 109% | – | –
NC(=O)C[C@H](N)C(=O)O [Asn, asparagine] | 3.60 g/L | 135% | Significant effects of improvement | Significant effects of improvement
N[C@@H](CC(=O)O)C(=O)O [Asp, aspartic acid] | 2.46 g/L | 92% | – | –
N[C@@H](CS)C(=O)O [Cys] | 2.81 g/L | 106% | – | –
NC(=O)CC[C@H](N)C(=O)O [Gln, glutamine] | 3.05 g/L | 115% | – | –
N[C@@H](CCC(=O)O)C(=O)O [Glu, glutamic acid] | 2.25 g/L | 85% | – | –
NCC(=O)O [Gly] | 3.03 g/L | 114% | – | –
N[C@@H](Cc1c[nH]cn1)C(=O)O [His, histidine] | 3.26 g/L | 122% | Significant effects of improvement | –
CC[C@H](C)[C@H](N)C(=O)O [Ile] | 2.09 g/L | 79% | – | –
CC(C)C[C@H](N)C(=O)O [Leu, leucine] | 1.12 g/L | 42% | – | –
NCCCC[C@H](N)C(=O)O [Lys] | 3.08 g/L | 116% | – | –
CSCC[C@H](N)C(=O)O [Met] | 2.67 g/L | 100% | – | –
N[C@@H](Cc1ccccc1)C(=O)O [Phe] | 2.79 g/L | 105% | – | –
O=C(O)[C@@H]1CCCN1 [Pro] | 2.97 g/L | 112% | – | –
N[C@@H](CO)C(=O)O [Ser, serine] | 3.42 g/L | 128% | Significant effects of improvement | Significant effects of improvement
C[C@@H](O)[C@H](N)C(=O)O [Thr, threonine] | 3.29 g/L | 124% | Significant effects of improvement | Significant effects of improvement
N[C@@H](Cc1c[nH]c2ccccc12)C(=O)O [Trp] | 3.07 g/L | 115% | – | –
N[C@@H](Cc1ccc(O)cc1)C(=O)O [Tyr, tyrosine] | 3.62 g/L | 136% | – | Significant effects of improvement
CC(C)[C@H](N)C(=O)O [Val, valine] | 2.67 g/L | 100% | – | –
